Measurements from PubChem BioAssay AID2060354 (Molecular Pharmacology Branch, DTP, NCI, 2025).

Test system: 519858-162-T-J1-PDC spheroid growth inhibition
Test: Anticancer human tumor 519858-162-T-J1-PDC patient-derived colon adenocarcinoma cell line growth inhibition [TAK]
Details: spheroids with HUVEC and MSC; for IC50: curve of first compound; for viability, T/C: stronger effect = lower value
In short: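 Drug combinations, each paired with TAK-243 or ipatasertib, were tested on multi-cell spheroids of 60% malignant cells, 25% HUVEC and 15% hMSC. Top concentrations were at or near the clinical Cmax (10 microM if undetermined), decreasing by half-log; viability is given as % test/control.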
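Note: spheroids exposed to drugs for 7 days.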

## CC(=O)Nc1cccc(-n2c(=O)n(C3CC3)c(=O)c3c(Nc4ccc(I)cc4F)n(C)c(=O)c(C)c32)c1 + CC(C)NCC(C(=O)N1CCN(c2ncnc3c2C(C)CC3O)CC1)c1ccc(Cl)cc1
Second compound 0.3 µM
  IC50: 5.63 nM
Second compound 0.949 µM
  IC50: 5.24 nM
Second compound 3 µM
  IC50: 5.89 nM
Second compound 9.49 µM
  IC50: 6.24 nM
Second compound 30 µM
  IC50: 9.07 nM
Second compound 0.3 µM, first compound 94.9 pM
  viability, T/C: 78.5%
Second compound 0.3 µM, first compound 0.0003 µM
  viability, T/C: 87.2%
Second compound 0.3 µM, first compound 0.000949 µM
  viability, T/C: 72%
Second compound 0.3 µM, first compound 0.003 µM
  viability, T/C: 62.6%
Second compound 0.3 µM, first compound 0.00949 µM
  viability, T/C: 40.1%
Second compound 0.3 µM, first compound 0.03 µM
  viability, T/C: 18.1%
Second compound 0.949 µM, first compound 94.9 pM
  viability, T/C: 99.8%
Second compound 0.949 µM, first compound 0.0003 µM
  viability, T/C: 107%
Second compound 0.949 µM, first compound 0.000949 µM
  viability, T/C: 69%
Second compound 0.949 µM, first compound 0.003 µM
  viability, T/C: 66.1%
Second compound 0.949 µM, first compound 0.00949 µM
  viability, T/C: 37.8%
Second compound 0.949 µM, first compound 0.03 µM
  viability, T/C: 18.4%
Second compound 3 µM, first compound 94.9 pM
  viability, T/C: 82.7%
Second compound 3 µM, first compound 0.0003 µM
  viability, T/C: 97.7%
Second compound 3 µM, first compound 0.000949 µM
  viability, T/C: 86.2%
Second compound 3 µM, first compound 0.003 µM
  viability, T/C: 65.6%
Second compound 3 µM, first compound 0.00949 µM
  viability, T/C: 39.5%
Second compound 3 µM, first compound 0.03 µM
  viability, T/C: 26.5%
Second compound 9.49 µM, first compound 94.9 pM
  viability, T/C: 70.6%
Second compound 9.49 µM, first compound 0.0003 µM
  viability, T/C: 78.9%
Second compound 9.49 µM, first compound 0.000949 µM
  viability, T/C: 73.2%
Second compound 9.49 µM, first compound 0.003 µM
  viability, T/C: 62.7%
Second compound 9.49 µM, first compound 0.00949 µM
  viability, T/C: 42.5%
Second compound 9.49 µM, first compound 0.03 µM
  viability, T/C: 18.2%
Second compound 30 µM, first compound 94.9 pM
  viability, T/C: 109%
Second compound 30 µM, first compound 0.0003 µM
  viability, T/C: 77.6%
Second compound 30 µM, first compound 0.000949 µM
  viability, T/C: 95.4%
Second compound 30 µM, first compound 0.003 µM
  viability, T/C: 68.5%
Second compound 30 µM, first compound 0.00949 µM
  viability, T/C: 48.3%
Second compound 30 µM, first compound 0.03 µM
  viability, T/C: 21.8%

## CC(C)CC(NC(=O)CNC(=O)c1cc(Cl)ccc1Cl)B1OC(=O)CC(CC(=O)O)(C(=O)O)O1 (stereo not given) + CC(C)NCC(C(=O)N1CCN(c2ncnc3c2C(C)CC3O)CC1)c1ccc(Cl)cc1
Second compound 0.3 µM
  IC50: > 100 nM
Second compound 0.949 µM
  IC50: > 100 nM
Second compound 3 µM
  IC50: > 100 nM
Second compound 9.49 µM
  IC50: > 100 nM
Second compound 30 µM
  IC50: > 100 nM
Second compound 0.3 µM, first compound 0.000316 µM
  viability, T/C: 94.4%
Second compound 0.3 µM, first compound 0.001 µM
  viability, T/C: 101%
Second compound 0.3 µM, first compound 0.00316 µM
  viability, T/C: 99%
Second compound 0.3 µM, first compound 0.01 µM
  viability, T/C: 79%
Second compound 0.3 µM, first compound 0.0316 µM
  viability, T/C: 95.9%
Second compound 0.3 µM, first compound 0.1 µM
  viability, T/C: 59.7%
Second compound 0.949 µM, first compound 0.000316 µM
  viability, T/C: 114%
Second compound 0.949 µM, first compound 0.001 µM
  viability, T/C: 91.7%
Second compound 0.949 µM, first compound 0.00316 µM
  viability, T/C: 79.5%
Second compound 0.949 µM, first compound 0.01 µM
  viability, T/C: 81.3%
Second compound 0.949 µM, first compound 0.0316 µM
  viability, T/C: 88%
Second compound 0.949 µM, first compound 0.1 µM
  viability, T/C: 67.7%
Second compound 3 µM, first compound 0.000316 µM
  viability, T/C: 101%
Second compound 3 µM, first compound 0.001 µM
  viability, T/C: 88.5%
Second compound 3 µM, first compound 0.00316 µM
  viability, T/C: 92.5%
Second compound 3 µM, first compound 0.01 µM
  viability, T/C: 71.3%
Second compound 3 µM, first compound 0.0316 µM
  viability, T/C: 81.7%
Second compound 3 µM, first compound 0.1 µM
  viability, T/C: 82.9%
Second compound 9.49 µM, first compound 0.000316 µM
  viability, T/C: 90%
Second compound 9.49 µM, first compound 0.001 µM
  viability, T/C: 100%
Second compound 9.49 µM, first compound 0.00316 µM
  viability, T/C: 80.4%
Second compound 9.49 µM, first compound 0.01 µM
  viability, T/C: 77.2%
Second compound 9.49 µM, first compound 0.0316 µM
  viability, T/C: 92.5%
Second compound 9.49 µM, first compound 0.1 µM
  viability, T/C: 71.1%
Second compound 30 µM, first compound 0.000316 µM
  viability, T/C: 90.5%
Second compound 30 µM, first compound 0.001 µM
  viability, T/C: 87.7%
Second compound 30 µM, first compound 0.00316 µM
  viability, T/C: 108%
Second compound 30 µM, first compound 0.01 µM
  viability, T/C: 79.5%
Second compound 30 µM, first compound 0.0316 µM
  viability, T/C: 73.3%
Second compound 30 µM, first compound 0.1 µM
  viability, T/C: 78.6%
